Structures can show the parent of a compound that is named as a salt.
What was measured:
[1] = biological target: T1, GST-tagged truncated LRRK2 (Homo sapiens, UniProt Q5S007); assay: LRRK2 Assay, Format 2 (Lantha Screen), WT; type: biochemical; details: geometric mean of 2-4 determinations unless otherwise indicated (a: >=5; b: single determination)
T1 construct: GST-tagged truncated LRRK2 from Invitrogen (Cat # PV4874); GST; purchased Invitrogen PV4874

mutant G2019S LRRK2 = mutant G2019S LRRK2 (Homo sapiens, UniProt Q5S007, G2019S); assay: LRRK2 Assay, Format 2 (Lantha Screen), G2019S mutant; type: biochemical; design: purchased Invitrogen PV4881; details: geometric mean of 2-4 determinations unless otherwise indicated (a: >=5; b: single determination); read-out: LRRK2, Format 2 G2019S IC50
Chain of mutant G2019S LRRK2 (Q5S007 970-2527 G2019S limits assumed): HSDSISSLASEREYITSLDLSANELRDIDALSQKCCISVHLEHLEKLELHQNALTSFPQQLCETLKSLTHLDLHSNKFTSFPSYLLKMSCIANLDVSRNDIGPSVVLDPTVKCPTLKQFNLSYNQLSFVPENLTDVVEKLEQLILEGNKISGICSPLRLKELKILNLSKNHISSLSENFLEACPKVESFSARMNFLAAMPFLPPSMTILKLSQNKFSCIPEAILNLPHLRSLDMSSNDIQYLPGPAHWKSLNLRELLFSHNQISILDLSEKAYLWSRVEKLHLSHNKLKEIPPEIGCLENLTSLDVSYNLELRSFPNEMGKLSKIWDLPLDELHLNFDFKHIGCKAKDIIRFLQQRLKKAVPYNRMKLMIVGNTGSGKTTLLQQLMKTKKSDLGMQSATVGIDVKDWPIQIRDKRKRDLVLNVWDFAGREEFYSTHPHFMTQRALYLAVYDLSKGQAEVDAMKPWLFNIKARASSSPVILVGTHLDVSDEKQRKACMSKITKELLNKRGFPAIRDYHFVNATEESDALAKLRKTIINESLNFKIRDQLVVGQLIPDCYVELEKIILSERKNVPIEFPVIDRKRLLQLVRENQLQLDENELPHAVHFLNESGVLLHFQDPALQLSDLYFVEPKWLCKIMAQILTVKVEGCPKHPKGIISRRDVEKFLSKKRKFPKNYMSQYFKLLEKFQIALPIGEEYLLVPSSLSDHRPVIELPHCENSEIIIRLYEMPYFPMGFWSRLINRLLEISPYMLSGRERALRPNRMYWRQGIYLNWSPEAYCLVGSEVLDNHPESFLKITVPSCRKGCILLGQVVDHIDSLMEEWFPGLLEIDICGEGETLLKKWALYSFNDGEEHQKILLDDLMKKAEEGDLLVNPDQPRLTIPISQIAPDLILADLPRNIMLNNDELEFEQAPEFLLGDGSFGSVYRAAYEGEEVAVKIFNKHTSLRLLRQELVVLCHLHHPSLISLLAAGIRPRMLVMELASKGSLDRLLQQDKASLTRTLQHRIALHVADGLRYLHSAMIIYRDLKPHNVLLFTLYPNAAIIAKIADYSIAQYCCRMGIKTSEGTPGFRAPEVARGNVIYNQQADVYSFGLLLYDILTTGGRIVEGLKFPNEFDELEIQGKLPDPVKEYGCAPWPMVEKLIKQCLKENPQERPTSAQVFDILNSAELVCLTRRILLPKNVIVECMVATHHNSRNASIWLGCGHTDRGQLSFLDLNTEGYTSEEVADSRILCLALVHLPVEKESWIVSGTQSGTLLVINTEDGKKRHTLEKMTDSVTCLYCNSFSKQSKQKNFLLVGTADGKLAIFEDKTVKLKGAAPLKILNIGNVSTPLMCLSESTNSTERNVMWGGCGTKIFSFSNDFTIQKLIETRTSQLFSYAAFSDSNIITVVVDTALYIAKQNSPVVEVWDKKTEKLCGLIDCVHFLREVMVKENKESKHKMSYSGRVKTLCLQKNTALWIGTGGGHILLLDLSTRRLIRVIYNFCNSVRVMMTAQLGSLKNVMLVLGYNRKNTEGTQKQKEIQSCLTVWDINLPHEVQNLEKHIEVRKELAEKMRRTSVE

T1 sequence (Q5S007 970-2527 limits assumed): as the sequence (Q5S007 970-2527 G2019S limits assumed) above, with S1050G counted along it

IC50 [1] | IC50 (mutant G2019S LRRK2) | Structure (SMILES)
7.04 nM | 7.63 nM | COc1cnn(Cc2nc3cnc4ccc(C#N)cc4c3n2CC(C)(F)F)c1 [Example 210, 1-(2,2-difluoropropyl)-2-[(4-methoxy-1H-pyrazol-1-yl)methyl]-1H-imidazo[4,5-c]quinoline-8-carbonitrile]
5.43 nM | 11.1 nM | Cc1cc(Cc2nc3cnc4ccc(C#N)cc4c3n2C2CCN(C)C2)no1 (centres unmarked) [Example 217, 2-[(5-methyl-1,2-oxazol-3-yl)methyl]-1-(1-methylpyrrolidin-3-yl)-1H-imidazo[4,5-c]quinoline-8-carbonitrile, formate salt]
15.5 nM | 20.4 nM | N#Cc1ccc2ncc3nc(Cn4cc(C5CC5)nn4)n([C@@H]4CC[C@H](F)C4)c3c2c1 (single isomer, unassigned; ent-1) [Example 202, 2-[(4-cyclopropyl-1H-1,2,3-triazol-1-yl)methyl]-1-(cis-3-fluorocyclopentyl)-1H-imidazo[4,5-c]quinoline-8-carbonitrile, ENT-1]
21.4 nM | 30.5 nM | Cc1cc(Cc2nc3cnc4ccc(C#N)cc4c3n2C2CCCCC2(F)F)no1 (single isomer, unassigned; ent-2) [Example C94, 1-(2,2-difluorocyclohexyl)-2-[(5-methyl-1,2-oxazol-3-yl)methyl]-1H-imidazo[4,5-c]quinoline-8-carbonitrile, ENT-2]
7.01 nM | 7.25 nM | C[C@@H]1C[C@H](n2c(Cc3ccn(C)n3)nc3cnc4ccc(Cl)cc4c32)CCO1 [Example 163, 8-chloro-2-[(1-methyl-1H-pyrazol-3-yl)methyl]-1-[(2R,4R)-2-methyltetrahydro-2H-pyran-4-yl]-1H-imidazo[4,5-c]quinoline]
65 nM | 86.5 nM | Cc1cc(Cc2nc3cnc4ccc(C#N)cc4c3n2C2CCC(F)(F)C2)no1 (centres unmarked) [Example 246, 1-(3,3-difluorocyclopentyl)-2-[(5-methyl-1,2-oxazol-3-yl)methyl]-1H-imidazo[4,5-c]quinoline-8-carbonitrile, formate salt]
13 nM | 11.9 nM | C[C@@H]1C[C@H](n2c(C(F)(F)c3ccccn3)nc3cnc4ccc(C#N)cc4c32)CCO1 [Example 236, 2-[difluoro(pyridin-2-yl)methyl]-1-[(2R,4R)-2-methyltetrahydro-2H-pyran-4-yl]-1H-imidazo[4,5-c]quinoline-8-carbonitrile, formate salt]
7.18 nM | 6.95 nM | C[C@@H]1C[C@H](n2c(Cc3nnnn3C)nc3cnc4ccc(Cl)cc4c32)CCO1 [Example 128, 8-chloro-1-[(2R,4R)-2-methyltetrahydro-2H-pyran-4-yl]-2-[(1-methyl-1H-tetrazol-5-yl)methyl]-1H-imidazo[4,5-c]quinoline, formate salt]
9.71 nM | 9.37 nM | C[C@@H]1C[C@H](n2c(Cc3cnco3)nc3cnc4ccc(C#N)cc4c32)CCO1 [Example 229, 1-[(2R,4R)-2-methyltetrahydro-2H-pyran-4-yl]-2-(1,3-oxazol-5-ylmethyl)-1H-imidazo[4,5-c]quinoline-8-carbonitrile, formate salt]
14.3 nM | 18.6 nM | Cc1cc(Cc2nc3cnc4ccc(C#N)cc4c3n2[C@H]2CCC[C@H]2F)no1 (racemic) [Example 245, 1-(cis-2-fluorocyclopentyl)-2-[(5-methyl-1,2-oxazol-3-yl)methyl]-1H-imidazo[4,5-c]quinoline-8-carbonitrile, formate salt]
2.07 nM | 1.38 nM | Cc1cnc(Cc2nc3cnc4ccc(C(F)(F)F)cc4c3n2[C@@H]2CCO[C@H](C)C2)cn1 [Example 141, 2-[(5-methylpyrazin-2-yl)methyl]-1-[(2R,4R)-2-methyltetrahydro-2H-pyran-4-yl]-8-(trifluoromethyl)-1H-imidazo[4,5-c]quinoline]
24.9 nM | 26.6 nM | C[C@@H]1C[C@H](n2c(Cc3cncs3)nc3cnc4ccc(C#N)cc4c32)CCO1 [Example 231, 1-[(2R,4R)-2-methyltetrahydro-2H-pyran-4-yl]-2-(1,3-thiazol-5-ylmethyl)-1H-imidazo[4,5-c]quinoline-8-carbonitrile, formate salt]
7.68 nM | 7.16 nM | Cc1cnn(Cc2nc3cnc4ccc(C#N)cc4c3n2[C@@H]2CCO[C@H](C)C2)c1 [Example 133, 2-[(4-methyl-1H-pyrazol-1-yl)methyl]-1-[(2R,4R)-2-methyltetrahydro-2H-pyran-4-yl]-1H-imidazo[4,5-c]quinoline-8-carbonitrile]
4.81 nM | 5.03 nM | C[C@@H]1C[C@H](n2c(C(F)c3csnn3)nc3cnc4ccc(Cl)cc4c32)CCO1 (stereo partly drawn) [Example 220, 8-chloro-2-[fluoro(1,2,3-thiadiazol-4-yl)methyl]-1-[(2R,4R)-2-methyltetrahydro-2H-pyran-4-yl]-1H-imidazo[4,5-c]quinoline, formate salt]
18.8 nM | 20.5 nM | Cc1cnc(Cc2nc3cnc4ccc(C#N)cc4c3n2C2CCC(F)C2)cn1 (single isomer, unassigned; ent-2) [Example C89, 1-(cis-3-fluorocyclopentyl)-2-[(5-methylpyrazin-2-yl)methyl]-1H-imidazo[4,5-c]quinoline-8-carbonitrile, ENT-2]
16.7 nM | 25.5 nM | Cc1cc(Cc2nc3cnc4ccc(C#N)cc4c3n2C2CCCCC2(F)F)no1 (centres unmarked) [Example 151, 1-(2,2-difluorocyclohexyl)-2-[(5-methyl-1,2-oxazol-3-yl)methyl]-1H-imidazo[4,5-c]quinoline-8-carbonitrile, formate salt]
20.4 nM | 26.1 nM | Cc1cn(Cc2nc3cnc4ccc(C#N)cc4c3n2C2CCC(F)C2)nn1 (single isomer, unassigned; ent-1) [Example C73, 1-(cis-3-fluorocyclopentyl)-2-[(4-methyl-1H-1,2,3-triazol-1-yl)methyl]-1H-imidazo[4,5-c]quinoline-8-carbonitrile, ENT-1]
9.69 nM | 9.45 nM | C[C@@H]1C[C@H](n2c(Cc3ccccn3)nc3cnc4ccc(C#N)cc4c32)CCO1 [Example 223, 1-[(2R,4R)-2-methyltetrahydro-2H-pyran-4-yl]-2-(pyridin-2-ylmethyl)-1H-imidazo[4,5-c]quinoline-8-carbonitrile]
6.33 nM | 6.01 nM | Cc1cnn(Cc2nc3cnc4ccc(C#N)cc4c3n2[C@H]2CC[C@@H](F)C2)c1 (single isomer, unassigned) [Example 94, 1-[cis-3-Fluorocyclopentyl]-2-[(4-methyl-1H-pyrazol-1-yl)methyl]-1H-imidazo[4,5-c]quinoline-8-carbonitrile]
33.8 nM | 30.8 nM | CO[C@H]1C[C@@H](n2c(Cn3cc(C)nn3)nc3cnc4ccc(Cl)cc4c32)C1 [Example 183, 8-chloro-1-[(1s,3s)-3-methoxycyclobutyl]-2-[(4-methyl-1H-1,2,3-triazol-1-yl)methyl]-1H-imidazo[4,5-c]quinoline]
22.5 nM | 16.4 nM | CCC(F)(F)Cn1c(Cn2cc(C)nn2)nc2cnc3ccc(Cl)cc3c21 [Example 186, 8-chloro-1-(2,2-difluorobutyl)-2-[(4-methyl-1H-1,2,3-triazol-1-yl)methyl]-1H-imidazo[4,5-c]quinoline]
10.6 nM | 9.43 nM | C[C@@H]1C[C@H](n2c(Cc3cn(C)cn3)nc3cnc4ccc(C#N)cc4c32)CCO1 [Example 235, 2-[(1-methyl-1H-imidazol-4-yl)methyl]-1-[(2R,4R)-2-methyltetrahydro-2H-pyran-4-yl]-1H-imidazo[4,5-c]quinoline-8-carbonitrile, formate salt]
5.62 nM | 8.18 nM | Cc1cn(Cc2nc3cnc4ccc(Cl)cc4c3n2[C@H]2CC[C@@H](F)C2)nn1 (single isomer, unassigned) [Example 93, 8-Chloro-1-(cis-3-fluorocyclopentyl)-2-[(4-methyl-1H-1,2,3-triazol-1-yl)methyl]-1H-imidazo[4,5-c]quinoline]
21.4 nM | 32.2 nM | Cc1cc(Cc2nc3cnc4ccc(C#N)cc4c3n2[C@H]2CCN(C)C2)no1 [Example 218, 2-[(5-methyl-1,2-oxazol-3-yl)methyl]-1-[(3S)-1-methylpyrrolidin-3-yl]-1H-imidazo[4,5-c]quinoline-8-carbonitrile, formate salt]
6.75 nM | 7.44 nM | C[C@@H]1C[C@H](n2c(Cc3ccc4nnnn4n3)nc3cnc4ccc(Cl)cc4c32)CCO1 [Example 165, 8-chloro-1-[(2R,4R)-2-methyltetrahydro-2H-pyran-4-yl]-2-(tetrazolo[1,5-b]pyridazin-6-ylmethyl)-1H-imidazo[4,5-c]quinoline]
246 nM | 126 nM | CO[C@H]1CC[C@H](n2c(Cc3cc(C)on3)nc3cnc4ccc(C#N)cc4c32)CC1 [Example 219, 1-(trans-4-methoxycyclohexyl)-2-[(5-methyl-1,2-oxazol-3-yl)methyl]-1H-imidazo[4,5-c]quinoline-8-carbonitrile, formate salt]
5.36 nM | 6 nM | Cc1cc(Cc2nc3cnc4ccc(C#N)cc4c3n2[C@@H]2CCO[C@H](C)C2)on1 [Example 95, 2-[(3-Methyl-1,2-oxazol-5-yl)methyl]-1-[(2R,4R)-2-methyltetrahydro-2H-pyran-4-yl]-1H-imidazo[4,5-c]quinoline-8-carbonitrile]
4.54 nM | 5.82 nM | Cc1nn2cc(Cc3nc4cnc5ccc(C#N)cc5c4n3CC(C)(F)F)nc2s1 [Example 226, 1-(2,2-difluoropropyl)-2-[(2-methylimidazo[2,1-b][1,3,4]thiadiazol-6-yl)methyl]-1H-imidazo[4,5-c]quinoline-8-carbonitrile]

Source: patent publication US10039753B2, “Imidazo[4,5-c]quinoline and imidazo[4,5-c][1,5]naphthyridine derivatives as LRRK2 inhibitors” (Pfizer Inc., priority 2015, dated 2018)
